Reference: patent US20260193163A1, “CRYSTAL FORM OF L-ARGININE (S)-2-(1-ACETOXY-N-PENTYL)BENZOATE, AND PREPARATION METHOD THEREFOR AND USE THEREOF” (JIANGSU KANION PHARMACEUTICAL CO., LTD., priority 2023, published 2026)

Tests used:
[1] = Intrinsic dissolution rate in SGF or FeSSIF; format: physicochemical; conditions: 37° C., 100 rpm, 5-120 min, HPLC
Method: Samples of crystal form I (25 mg each) were weighed, placed into intrinsic dissolution rate metal modules, and maintained at a pressure of 20 pounds for 30 s and then placed in 20 mL of SGF (Simulated Gastric Fluid) or FeSSIF (Fed-State Simulated Intestinal Fluid) physiological medium, respectively. The medium was maintained at 37° C. and a rotation speed at 100 rpm throughout the process. Then, at 5, 15, 30, 45, 60, 90, and 120 min, respectively, a 0.5 mL aliquot of the solution was taken and filtered through a 0.22 μm aqueous microfiltration membrane. And the volume was replenished with 0.5 mL of the corresponding physiological medium. The concentration was determined according to an HPLC content assay method.

[2] = Crystal form stability study (PXRD, DSC, TGA on day 0, 5, 10); format: physicochemical; conditions: 10 days
Method: Samples of crystal form I were subjected to physical stability tests under different storage conditions. The storage conditions were respectively: • (1) High temperature: 60° C. • (2) High humidity: RH 90%±5% • (3) Under light exposure: 4500 lx±500 lx, with the total illumination from the light source reaching 1.2×10^6 lux·hr PXRD, DSC, and TGA tests were performed on the samples on day 0, day 5, and day 10, respectively, to investigate the stability of the samples under high temperature, high humidity, and light exposure conditions. The experimental results are detailed in FIG. 8 to FIG. 16 of the description.

CCCC[C@H](OC(C)=O)c1ccccc1C(=O)O [crystal form I, L-arginine (S)-2-(1-acetoxy-n-pentyl)benzoate]
Dissolution rate compared with the solid obtained in Comparative Example 1 [1]: significantly higher
Change of powder diffraction pattern, DSC trace and TGA trace (physical stability, crystal form transformation) ([2]; high humidity RH 90%±5%): no significant difference
Change of powder diffraction pattern, DSC trace and TGA trace (physical stability, crystal form transformation) ([2]; high temperature 60° C.): no significant difference
Change of powder diffraction pattern, DSC trace and TGA trace (physical stability, crystal form transformation) ([2]; light exposure 4500 lx±500 lx, total illumination 1.2×10^6 lux·hr): no significant difference
